Source: patent US7341726B2, “Modified HCV peptide immunogens” (The United States of America as represented by the …, priority 1998, dated 2008)
Entries after “also recorded” stand apart in the source; their conditions may differ.

Experiments:
HLA-A2.1 = biological target: T1, HLA-A2.1 (Homo sapiens, UniProt P04439, D140Y/D185E/D98H/E176V/E277Q/G131W/G231S/I119V/I121R/I166T/I218V/L300P/L318F/N151K/N90K/P208A/P217A/Q86G/Q94H/R138H/R169H/T345S); experiment: T2 binding assay: peptide stabilisation of cell-surface HLA-A2.1 (flow cytometry, BB7.2); conditions: T2 cells; for FI0.5, the peptide concentration that increases HLA-A2.1 expression by 50% over no peptide control: overnight, with β2-microglobulin
T1 construct: The T2 cell line is deficient in TAP1 and TAP2 transporter proteins and expresses low levels of HLA-A2.1; endogenous in cells; host or cells: T2 cell line (TAP1/TAP2-deficient)
Protocol: FIGS. 1A and 1B. Binding of C7A2 Alanine (A) and non-Alanine (B)-substituted peptides to TAP-deficient HLA-A2.1. T2 cells were incubated overnight in a 96 well plate in CTM with 10 Φg/ml human β2-microglobulin and different peptide concentrations. The next day, cells were washed and HLA-A2.1 expression was assessed by flow cytometry using the anti HLA-A2 BB7.2 monoclonal antibody and FITC labeled goat anti mouse Ig. Results are expressed as fluorescence index (FI), calculated according to the formula: (mean fluorescence with peptide−mean fluorescence without peptide)/mean fluorescence without peptide. Background fluorescence without BB7.2 was subtracted for each individual value. FI0.5 represents those peptide concentrations that increase HLA-A2.1 expression by 50% over the no peptide control and were calculated from the titration curves for each particular peptide.
Peptide binding to HLA molecules was measured using the T2 mutant cell line according to a protocol previously described (53). T2 cells (3×10/well) were incubated overnight in 96-well plates with culture medium (1:1 mixture of RPMI 1640: EHAA containing 2.5% FBS, 100 U/ml penicillin, 100 Φg/ml streptomycin) with 10 Φg/ml β2-microglobulin (Sigma Chemical Co; St. Louis, Mo.) and different peptide concentrations. The next day, cells were washed twice with cold PBS containing 2% FBS and incubated for 30 min at 4 EC with anti HLA-A2.1 BB7.2 monoclonal antibody (1/80 dilution from hybridoma supernatant) and 5 Φg/ml FITC-labeled goat anti mouse Ig (Pharmingen; San Diego, Calif.). Cells were washed twice after each incubation and HLA-A2.1 expression was measured by flow cytometry on a FACScan (Becton Dickinson). HLA-A2.1 expression was quantified as fluorescence index (FI) according to the formula: FI=(mean fluorescence with peptide—mean fluorescence without peptide)/mean fluorescence without peptide. Background fluorescence without BB7.2 antibody was subtracted for each individual value. In order to compare the different peptides, FI0.5, the peptide concentration that increases HLA-A2.1 expression by 50% over no peptide control background, was calculated from the titration curve for each peptide.
The binding affinity of wild-type C7A2 peptide (C7A2-WT) was evaluated with a T2 binding assay (53), which measures the cell surface stabilization of HLA-A2.1 molecules after incubation with peptide. In order to compare the different peptides, a fluorescence index value of 0.5 (FI0.5), the peptide concentration that increases HLA-A2.1 expression by 50%, was chosen as a way to compare titrations of the peptides and relative affinity for MHC molecules. Using this method, FI0.5 of 10 ΦM was calculated for C7A2-WT.

AAD transgenic mice [1] = experiment: In vivo immunogenicity of C7A2-derived peptides in AAD transgenic mice (CTL assay); design: species or system mouse; conditions: 50 nmol CTL epitope plus helper epitope, GM-CSF, IL-12 in IFA; targets pulsed with immunizing peptide
AAD transgenic mice [2] = experiment: Induction of CTL immune response against C7A2-WT in AAD transgenic mice; type: in vivo, mouse; conditions: 50 or 15 nmol CTL epitope; for CTL response to C7A2-WT after immunization: targets pulsed with C7A2-WT
Description: FIGS. 5A and 5B. […] Two weeks later, mice were boosted under the same conditions and 10-14 days after the boost, spleen cells were removed and stimulated in vitro with 10 ΦM CTL peptide-pulsed spleen cells.

A2Kb transgenic mice [3] = experiment: Induction of CTL immune response against C7A2-WT in A2Kb transgenic mice; type: in vivo, mouse; conditions: 50 nmol, E/T 120:1 for C7A2-WT, 70:1 for 8A
Description: FIG. 6. […] Two weeks later, mice were boosted under the same conditions and 10-14 days after the boost, spleen cells were removed and stimulated in vitro with 10 ΦM CTL peptide-pulsed spleen cells.

human CTL line ViT2 = experiment: Recognition of C7A2-variant peptides by human CTL line ViT2 (51Cr release, C1R.A2.1 targets); type: cell-based; conditions: for Recognition by human CTL line (lysis of peptide-sensitized target cells): E/T 5/1, peptide titration
[4] = tested on: transgenic AAD mouse CTL lines AAD.10 and AAD.1; experiment: Recognition of C7A2-variant peptides by AAD transgenic mouse CTL lines (51Cr release, C1R.AAD targets); type: cell-based; conditions: lines AAD.10 and AAD.1, C1R.AAD targets, E/T 10/1
[5] = tested on: short term CTL lines from AAD transgenic mice; conditions: C1R.AAD targets titrated with C7A2-WT, E:T 10:1
Description: FIG. 7. […] Two weeks later, mice were boosted under the same conditions and 10-14 days after the boost, spleen cells were removed and stimulated in vitro with 10 ΦM CTL peptide-pulsed spleen cells.

A2Kb transgenic mice [6] = conditions: 50 nmol, targets with 10 ΦM peptide
Protocol: (§1) FIGS. 8A and 8B. […] AAD (A) and A2Kb (B) transgenic mice were immunized with 50 nmol CTL epitope 8A plus 50 nmol HBVc 128-140 helper epitope in IFA. Two weeks later, mice were boosted under the same conditions and 10-14 days after the boost, spleen cells were removed and stimulated in vitro with 10 ΦM CTL peptide-pulsed spleen cells. After two weeks of in vitro stimulation, a CTL assay was performed with target cells (Con A blasts) incubated with the different peptides at 10 ΦM.
(§2) This peptide is common in viral isolates from HCV genotypes 2a and 2b (56,57).

AAD transgenic mice [7] = conditions: 50 nmol, targets with 10 ΦM peptide
Protocol: as §1, §2

| Substance | FI0.5, the peptide concentration that increases HLA-A2.1 expression by 50% over no peptide control (HLA-A2.1) | Induction of CTL response by immunization (AAD transgenic mice [1]) | CTL response to C7A2-WT after immunization (AAD transgenic mice [2]) | CTL immune response after immunization (A2Kb transgenic mice [3]) | Recognition by human CTL line (lysis of peptide-sensitized target cells) (human CTL line ViT2) | Recognition by AAD mouse CTL lines (sensitization of target cells) [4] | Binding to HLA-A2.1 (in words, compared with C7A2-WT) (HLA-A2.1) | Titration concentration relative to C7A2-WT (human CTL line ViT2; human CTL line) [fold lower concentrations] | CTL response to 8A after immunization (AAD transgenic mice [2]; targets pulsed with 8A) | C7A2-WT concentration for comparable killing, CTL raised against 8A versus CTL raised against C7A2-WT [5] | Cross-recognition of peptide 8V by CTL induced by immunization (A2Kb transgenic mice [6]) | Cross-recognition of peptide 8V by CTL induced by immunization (AAD transgenic mice [7]) |
| --- | --- | --- | --- | --- | --- | --- | --- | --- | --- | --- | --- | --- |
| DLMGYIPLV [Peptide C7A2-WT, naturally occurring peptide at positions 132-140 in the HCV core polypeptide, reference compound] | 10 ΦM | able to induce clear CTL responses | two of the four animals | low response | – | – | – | – | – | – | – | – |
| 8V: C7A2 peptide with position 8 L replaced by V; sequence common in HCV genotypes 2a and 2b (DLMGYIPVV) [Peptide 8V, reference compound] | 15 ΦM | – | – | – | behaved similarly to C7A2-WT | recognized at higher concentrations than determined for C7A2-WT | – | – | – | – | – | – |
| DLMGYIPAV [Peptide 8A] | around 2 ΦM | able to induce clear CTL responses; also recorded: induced higher levels of lysis | strong responses to C7A2-WT | higher level of response | higher levels of lysis than C7A2-WT | able to sensitize target cells in a concentration range around that of C7A2-WT | higher affinity; also recorded: bind at lower concentrations than C7A2-WT | 10 | positive responses to 8A itself | more than 100 fold lower | recognize peptide 8V | recognize peptide 8V |
